Patent publication US20150038500A1, “PHARMACEUTICAL COMPOSITION FOR PREVENTING AND TREATING OPHTHALMIC DISORDERS” (CATHOLIC UNIVERSITY INDUSTRY-ACADEMIC COOPERATION FOUNDATION, priority 2011, published 2015)
“Also recorded” adds a separate entry of the source.

Legend:
[1] = tested on: corneal wound models; assay: Corneal wound healing effect test (corneal epithelium removal model); type: in vivo, New Zealand white rabbits
Description: It was examined whether the compounds of formula (1) show clinically stable corneal wound healing effects in ophthalmologic surgery such as LRP (laser reversal of presbyopia), LASIK (laser assisted in-situ keratomileusis) and LASEK (laser assisted sub-epithelial keratomileusis). For this, 16 New Zealand white rabbits of 2.0˜2.5 kg were prepared as test animals, anesthetized via intramuscular injection with 15 mg/kg of Zoletil and 5 mg/kg of Xylazine, and then their corneal epitheliums with diameters of 10-12 mm or so were removed using a surgery blade (No. 15) and a rotary epithelial scrubber to produce corneal wound models. At 30 min. after the above-mentioned surgery, two drops of compound 1, that is, (tetrahydropyran-4-ylmethyl)-[2-phenyl-5-(1,1-dioxo-thiomorpholine-4-yl)methyl-1H-indole-7-yl]amine) (KDR Biotech. Co., Ltd., Seoul, Korea) of 50 μM were applied to the experimental group and two drops of a physiological saline were applied to the control group and then, they wore contact lenses, and one drop of the same medicines was applied at 12-hour intervals. To measure a wound area in the experimental group and the control group, their corneal surfaces were stained with Fluorescin using Fluorescin (Haag-Streit International, Switzerland) strips and their diameters were measured using a microcaliper at 24-hour intervals. In the meantime, for the histological evaluation of the experimental group and the control group, they were anesthetized with 25% urethane on the first, second and third day to extract their eyeballs and then, their anterior eye parts including cornea were embedded in wax (Polyscience, USA) to produce 5-μm fragments, which were then stained with Hematoxylin & Eosin and observed using a microscope.

[2] = tested on: MNU (N-methyl-N-nitrosourea)-induced retinal degeneration models; assay: Efficiency test in MNU-induced retinal degeneration animal model; type: in vivo, Sprague-Dawley rats
Description: The compounds of formula (1) were applied to retinal degeneration which is hard to cure or incurable to evaluate their effects. For this, 3 250-g Sprague-Dawley rats were prepared as a test animal, and injected with 75 mg/kg of N-methyl-N-nitrosourea (MNU) via an intraperitoneal route to induce retinal degeneration, thereby to produce retinal degeneration models. At 30 min. after the retinal degeneration induction, 10 μl of compound 1, that is, (tetrahydropyran-4-ylmethyl)-[2-phenyl-5-(1,1-dioxo-thiomorpholine-4-yl)methyl-1H-indole-7-yl]amine) (KDR Biotech. Co., Ltd., Seoul, Korea) of 50 μM and a physiological saline was injected into the vitreous body of the experimental group and the control group, respectively and then, the same medicines were injected via the same methods after 72 hours of the retinal degeneration induction. To evaluate the healing effects of retinal degeneration in the experimental group and the control group, on the 5th day of the retinal degeneration induction, the animals were anesthetized using 8% chloral hydrate (0.5 mg/kg) and subjected to electroretinogram (ERG) test (UTAS-2000; LKC Technologies, USA), in which scotopic response was recorded as a single flash response having a strength of 0.9 log (cd s) m^−2 or higher. In the meantime, for the histological evaluation of the experimental group and the control group, their eyeballs were extracted from the animals which completed the electroretinogram test on the 5th day of the retinal degeneration induction to produce eyecups, and then they were embedded in wax to produce 5-μm fragments, which were then stained with Hematoxylin & Eosin and observed using a microscope.

[3] = tested on: human retinal pigment epithelial cell line ARPE-19; assay: Protection efficiency test of retinal pigment epithelial cell (NaIO3-induced apoptosis, MTT assay); type: cell-based; conditions: 10 mM NaIO3 then 1 μM compound
Description: A human retinal pigment epithelial cell line ARPE-19 was treated with 10 mM of NaIO3, which is a retinal pigment epithelial cell apoptosis inducing agent, to induce apoptosis and then, it was treated with compound 2 of the invention, that is, (5-(1,1-dioxo-thiomorpholine-4-yl)methyl-2-phenyl-1H-indole-7-yl)-(1-methanesulfonyl-piperidine-4-yl)-amine (Enzo Life Sciences, Inc.) of 1 μM, and the compound treatment group and the non-treatment group were analyzed about their apoptosis degree using an MTT assay and survived cells were comparatively analyzed.

[4] = tested on: white rat retina explant; assay: Retinal nerve cell protection efficiency test on low oxygen stimulation (retinal explant culture); type: cell-based; conditions: hypoxic chamber 30 min, 1 μM compound, cultivated 3 days
Description: A white rat retina was cultivated overnight under explant culture conditions and then, damaged with low oxygen in a hypoxic chamber for 30 min., and cultivated for 3 days with or without being treated with compound 2 of 1 μM, and after the cultivation, the obtained retinal explants were stained and observed using a microscope.

[5] = 10 μl of 50 μM intravitreal at 30 min and 72 hours, ERG on 5th day

| Compound | time until corneal wound healed (Fluorescin stain) ([1]; 50 μM eye drops at 12-hour intervals, saline control healed on the 4th to 5th day) | healing effect on damaged corneal area (fluorescin staining) in comparison with control group ([1]; 50 μM eye drops, damaged areas right after wound induction and on the third day) | corneal epithelium in Hematoxylin & Eosin stained corneal tissue fragments ([1]; 50 μM eye drops, third day of drug treatment, control epithelium remained damaged) | ERG response higher than the control group [2, 5] | electroretinogram a- and b-wave response compared to control group [2, 5] | retinal tissue fragments stained with Hematoxylin & Eosin (histology) ([2]; 10 μl of 50 μM intravitreal, 5th day, control showed severe retinal degeneration) | survived cells (MTT assay) in comparison with control group [3] | outer nuclear layer (ONL) and inner nuclear layer (INL) of retinal explant after low oxygen damage [4] |
| --- | --- | --- | --- | --- | --- | --- | --- | --- |
| O=S1(=O)CCN(Cc2cc(NCC3CCOCC3)c3[nH]c(-c4ccccc4)cc3c2)CC1 [compound 1, (tetrahydropyran-4-ylmethyl)-[2-phenyl-5-(1,1-dioxo-thiomorpholine-4-yl)methyl-1H-indole-7-yl]amine] | ≤ 3 days | statistically significant (*** P<0.001) healing effect | completely restored | 200% | increased response in both a- and b-waves | close to a normal tissue; also recorded: well-aligned retinal structure | – | – |
| CS(=O)(=O)N1CCC(Nc2cc(CN3CCS(=O)(=O)CC3)cc3cc(-c4ccccc4)[nH]c23)CC1 [compound 2, (5-(1,1-dioxo-thiomorpholine-4-yl)methyl-2-phenyl-1H-indole-7-yl)-(1-methanesulfonyl-piperidine-4-yl)-amine] | – | – | – | – | – | – | statistically significant (* P<0.05; Student's t-test) survival results | well preserved |
